Reference: patent publication US20160311831A1, “Imidazotriazinones as PDE1 Inhibitors” (H. Lundbeck A/S, priority 2015, published 2016)

Tests used:
Assay type in all cases: biochemical
PDE9 = PDE9 (Homo sapiens, UniProt O76083); experiment: PDE9 inhibition assay, SPA with 3H-cAMP; conditions: compound at 10 microM; 10 nM 3H-cAMP, 1 hr incubation
Experimental: A PDE9 assay may for example, be performed as follows: The assay is performed in 60 μL samples containing a fixed amount of the relevant PDE enzyme (sufficient to convert 20-25% of the cyclic nucleotide substrate), a buffer (50 mM HEPES7.6; 10 mM MgCl2; 0.02% Tween20), 0.1 mg/mL BSA, 225 pCi of ^3H-labelled cyclic nucleotide substrate, tritium labeled cAMP to a final concentration of 5 nM and varying amounts of inhibitors. Reactions are initiated by addition of the cyclic nucleotide substrate, and reactions are allowed to proceed for one hr at room temperature before being terminated through mixing with 15 μL 8 mg/mL yttrium silicate SPA beads (Amersham). The beads are allowed to settle for one hr in the dark before the plates are counted in a Wallac 1450 Microbeta counter. The measured signal can be converted to activity relative to an uninhibited control (100%) and IC50 values can be calculated using the Xlfit extension to EXCEL.
In the context of the present invention the assay was performed in 60 uL assay buffer (50 mM HEPES pH 7.6; 10 mM MgCl2; 0.02% Tween20) containing enough PDE9 to convert 20-25% of 10 nM ^3H-cAMP and varying amounts of inhibitors. Following a 1 hr incubation the reactions were terminated by addition of 15 uL 8 mg/mL yttrium silicate SPA beads (Amersham). The beads were allowed to settle for one hr in the dark before the plates were counted in a Wallac 1450 Microbeta counter.

PDE1B = PDE1B (Homo sapiens, UniProt Q01064); experiment: PDE1 inhibition assay (PDE1B), SPA with tritium labelled cAMP; conditions: 15 nM tritium labelled cAMP, 1 hr at room temperature
Chain of PDE1B (Q01064 whole entry): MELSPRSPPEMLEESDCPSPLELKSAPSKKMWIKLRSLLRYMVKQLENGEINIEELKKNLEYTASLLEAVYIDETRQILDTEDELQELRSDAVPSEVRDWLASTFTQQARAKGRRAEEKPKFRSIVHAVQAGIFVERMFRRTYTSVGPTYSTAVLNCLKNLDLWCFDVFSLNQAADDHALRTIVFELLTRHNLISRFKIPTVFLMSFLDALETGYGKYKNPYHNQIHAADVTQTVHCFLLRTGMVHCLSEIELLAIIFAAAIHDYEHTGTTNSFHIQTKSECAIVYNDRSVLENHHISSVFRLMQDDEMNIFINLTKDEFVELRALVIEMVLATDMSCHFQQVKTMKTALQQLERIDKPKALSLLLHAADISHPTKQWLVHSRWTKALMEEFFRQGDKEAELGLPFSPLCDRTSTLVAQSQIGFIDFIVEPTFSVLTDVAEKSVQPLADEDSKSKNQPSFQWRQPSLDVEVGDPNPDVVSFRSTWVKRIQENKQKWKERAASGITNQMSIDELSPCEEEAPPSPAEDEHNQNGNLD
Experimental: (§1) PDE1A, PDE1B and PDE1C assays were performed as follows: the assays was performed in 60 μL samples containing a fixed amount of the PDE1 enzym1 (sufficient to convert 20-25% of the cyclic nucleotide substrate), a buffer (50 mM HEPES pH 7.6; 10 mM MgCl2; 0.02% Tween20), 0.1 mg/mL BSA, 15 nM tritium labelled cAMP and varying amounts of inhibitors. Reactions were initiated by addition of the cyclic nucleotide substrate, and reactions were allowed to proceed for 1 hr at room temperature before being terminated through mixing with 20 μL (0.2 mg) yttrium silicate SPA beads (PerkinElmer). The beads were allowed to settle for 1 hr in the dark before the plates were counted in a Wallac 1450 Microbeta counter. The measured signals were converted to activity relative to an uninhibited control (100%) and IC50 values were calculated using XIFit (model 205, IDBS).

PDE1C = PDE1C (Homo sapiens, UniProt Q14123); experiment: PDE1 inhibition assay (PDE1C), SPA with tritium labelled cAMP; conditions: 15 nM tritium labelled cAMP, 1 hr at room temperature
Chain of PDE1C (Q14123 whole entry): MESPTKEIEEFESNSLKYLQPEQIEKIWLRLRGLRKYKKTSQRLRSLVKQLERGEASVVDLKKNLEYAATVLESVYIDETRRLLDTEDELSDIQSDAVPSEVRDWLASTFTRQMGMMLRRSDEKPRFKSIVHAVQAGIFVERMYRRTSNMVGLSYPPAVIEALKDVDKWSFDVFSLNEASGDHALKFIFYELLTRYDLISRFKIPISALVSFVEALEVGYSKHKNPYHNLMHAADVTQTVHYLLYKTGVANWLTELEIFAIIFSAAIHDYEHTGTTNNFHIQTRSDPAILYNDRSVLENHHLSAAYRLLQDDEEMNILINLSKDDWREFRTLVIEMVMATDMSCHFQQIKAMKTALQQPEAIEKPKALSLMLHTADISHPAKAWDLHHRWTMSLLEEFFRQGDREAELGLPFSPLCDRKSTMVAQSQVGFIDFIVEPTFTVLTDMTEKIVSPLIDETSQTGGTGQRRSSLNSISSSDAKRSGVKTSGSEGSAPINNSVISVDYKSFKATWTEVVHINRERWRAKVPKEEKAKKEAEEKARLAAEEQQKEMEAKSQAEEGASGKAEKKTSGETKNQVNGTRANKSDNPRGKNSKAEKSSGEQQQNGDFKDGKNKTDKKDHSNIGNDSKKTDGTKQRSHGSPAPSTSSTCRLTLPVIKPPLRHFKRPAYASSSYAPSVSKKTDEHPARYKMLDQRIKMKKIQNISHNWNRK
Experimental: as §1

PDE1A = PDE1A (Homo sapiens, UniProt P54750); experiment: PDE1 inhibition assay (PDE1A), SPA with tritium labelled cAMP; conditions: 15 nM tritium labelled cAMP, 1 hr at room temperature
Chain of PDE1A (P54750 whole entry): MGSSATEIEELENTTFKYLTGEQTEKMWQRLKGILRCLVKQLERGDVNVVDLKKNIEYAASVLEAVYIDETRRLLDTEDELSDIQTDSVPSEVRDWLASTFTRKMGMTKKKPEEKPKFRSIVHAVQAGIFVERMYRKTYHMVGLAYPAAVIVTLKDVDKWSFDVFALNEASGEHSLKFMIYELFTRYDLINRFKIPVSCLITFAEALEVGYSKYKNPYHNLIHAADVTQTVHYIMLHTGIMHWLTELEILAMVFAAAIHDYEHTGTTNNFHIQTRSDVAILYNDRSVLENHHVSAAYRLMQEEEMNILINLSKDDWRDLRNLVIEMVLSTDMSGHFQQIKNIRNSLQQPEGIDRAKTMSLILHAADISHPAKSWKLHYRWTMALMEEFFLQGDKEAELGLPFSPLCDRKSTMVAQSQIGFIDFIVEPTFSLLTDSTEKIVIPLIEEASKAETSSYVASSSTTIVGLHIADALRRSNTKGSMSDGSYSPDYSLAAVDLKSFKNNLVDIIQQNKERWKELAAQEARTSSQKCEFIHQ
Experimental: as §1

Chain of PDE9 (O76083 whole entry): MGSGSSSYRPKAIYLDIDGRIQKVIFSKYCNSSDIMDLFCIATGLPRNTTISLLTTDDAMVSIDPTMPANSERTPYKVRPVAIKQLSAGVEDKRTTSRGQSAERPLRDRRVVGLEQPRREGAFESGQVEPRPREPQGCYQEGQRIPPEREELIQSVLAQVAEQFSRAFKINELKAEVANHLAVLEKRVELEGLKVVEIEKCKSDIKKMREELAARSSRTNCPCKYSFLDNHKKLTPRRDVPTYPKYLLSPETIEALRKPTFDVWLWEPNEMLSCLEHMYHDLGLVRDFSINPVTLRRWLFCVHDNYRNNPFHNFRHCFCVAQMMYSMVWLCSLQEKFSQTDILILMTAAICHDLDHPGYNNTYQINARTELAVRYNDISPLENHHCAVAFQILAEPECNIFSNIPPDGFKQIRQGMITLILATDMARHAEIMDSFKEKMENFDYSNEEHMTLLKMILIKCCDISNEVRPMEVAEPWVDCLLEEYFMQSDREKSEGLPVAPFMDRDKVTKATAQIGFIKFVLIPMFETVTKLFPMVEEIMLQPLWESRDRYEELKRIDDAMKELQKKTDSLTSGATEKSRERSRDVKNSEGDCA

Row | SMILES | inhibition at 10 µM (PDE9) [%] | IC50 (PDE1B) [nM] | IC50 (PDE1C) [nM] | IC50 (PDE1A) [nM]
1 | Cc1nn2c(C3CCOCC3)ncc2c(=O)n1Cc1ccc(Cl)cc1 [Example 24, 3-(4-Chlorobenzyl)-2-methyl-7-(tetrahydro-2H-pyran-4-yl)imidazo[5,1-f][1,2,4]triazin-4(3H)-one] | -11 | 61 | 104 | 35
2 | O=c1c2cnc(C3CCOCC3)n2ncn1CC1CCCCC1 [Example 26, 3-(Cyclohexylmethyl)-7-(tetrahydro-2H-pyran-4-yl)imidazo[5,1-f][1,2,4]triazin-4(3H)-one] | 8 | 376 | 103 | 554
3 | O=c1c2cnc(C3CCOCC3)n2ncn1CC1CCCCCC1 [Example 29, 3-(Cycloheptylmethyl)-7-(tetrahydro-2H-pyran-4-yl)imidazo[5,1-f][1,2,4]triazin-4(3H)-one] | 21 | 52 | 25 | 33

Continued by falling IC50 (PDE1B), values first:

Row | inhibition at 10 µM (PDE9) [%] | IC50 (PDE1B) [nM] | IC50 (PDE1C) [nM] | IC50 (PDE1A) [nM] | SMILES
4 | 8 | 131 | 15 | 52 | CCc1nn2c(C3CCOCC3)ncc2c(=O)n1Cc1cccc(F)c1 [Example 25, 2-Ethyl-3-(3-fluorobenzyl)-7-(tetrahydro-2H-pyran-4-yl)imidazo[5,1-f][1,2,4]triazin-4(3H)-one]
5 | -4 | 26 | 21 | 29 | COc1ccc(Cn2c(C)nn3c(C4CCOCC4)ncc3c2=O)cc1 [Example 23, 3-(4-Methoxybenzyl)-2-methyl-7-(tetrahydro-2H-pyran-4-yl)imidazo[5,1-f][1,2,4]triazin-4(3H)-one]
